Assay results as given in EP0504938A2, “Prophylactic and therapeutic agent for bone diseases comprising di- or tripeptide derivative as active ingredient” (SUNTORY LIMITED, priority 1991, dated 1992).
Non-standard residues stand in square brackets, D forms with d. Residues, ends and D or L forms follow the SMILES beside them. *: point of attachment. Nle = CCCC[C@H](N)C(=O)O; Cbz = O=C(OCc1ccccc1)*

Assays:
[1] = Acute toxicity, intraperitoneal; assay type: in vivo; conditions: 2 g/kg intraperitoneally, rats
[2] = test system: rat hypercalcemia induced by PTHrp(1-34); assay: Rat hypercalcemia induced by PTHrp(1-34), intraperitoneal administration; assay type: in vivo, male Wistar rats; conditions: 10 mg/kg intraperitoneal; for Ca conc. ± standard error: blood 1 hour after PTHrp, n = 5
Method: To male Wistar rats aged 5 weeks (70 - 90 g, 5 animals in each group), 10 mg/kg body weight of Compound 1 was intraperitoneally administered 0.5, 1, 2 and 4 hours before the administration of PTHrp(1-34). PTHrp(1-34) was intravenously injected into the animals at the level of 5 nmole/kg. One hour after the administration of PTHrp(1-34), a blood sample was collected from each animal and the blood calcium concentration was determined by the same method as the one employed in Example 1.

[3] = test system: secondary hyperparathyroidism; assay: Secondary hyperparathyroidism, calcium-deficient diet model; assay type: in vivo, male Wistar rats; conditions: 40 mg/kg oral after 5 days calcium-deficient diet; blood 5 hours after administration
Method: In a calcium-deficient diet model system of rats, parathyroid hormone is released in order to maintain the blood calcium concentration within a normal range. In other words, the parathyroid hormone induces bone resorption so that the blood calcium concentration is maintained within a normal range.
Taking advantage of the above-mentioned model system, male Wistar rats aged 5 weeks (70 - 90 g, 5 animals in each group) were fed on calcium-deficient diet for 5 days. After fasting overnight, 40 mg/kg body weight of the compounds listed in Table 1 were orally administered to the rats. 5 hours after the administration of the drugs, the blood calcium concentration of each animal was determined by the same method as the one employed in Example 1.

[4] = test system: rat hypercalcemia induced by PTHrp(1-34); assay: Rat hypercalcemia induced by PTHrp(1-34), oral administration; assay type: in vivo, male Wistar rats; conditions: 4 hours before PTHrp(1-34) 5 nmole/kg i.v., blood 1 hour after PTHrp, n = 5
Method: To male Wistar rats aged 5 weeks (70 - 90 g, 5 animals in each group), 40 mg/kg body weight of the compounds listed in Table 2 and 40 and 80 mg/kg body weight of the compounds listed in Table 3 were orally administered. After 4 hours, 5 nmole/kg of PTHrp(1-34) was intravenously injected into the animals.
One hour after the administration of PTHrp(1-34), a blood sample was collected from each rat and the blood calcium concentration was determined by the octocresolphthalein complexone method.

| Compound | blood calcium concentration (result in words) [3] | Ca conc. ± standard error ([4]; 40 mg/kg oral) [mg/dL] | Ca conc. ± standard error ([4]; 80 mg/kg oral) [mg/dL] | also measured |
| --- | --- | --- | --- | --- |
| CCCC[C@@H](C=O)NC(=O)[C@H](CC(C)C)NC(=O)OCc1ccccc1 [Compound 1, N-benzyloxycarbonyl-leucyl-norleucinal] |  |  |  | acute toxicity (general conditions, mortality) [1]: neither any change in the general conditions of the animals nor any mortal case was observed; suppression of the increase in the blood calcium concentration (result in words) ([2]; 0.5 to 4 hours before PTHrp(1-34)): continuously effected significant suppression; Ca conc. ± standard error ([2]; 0.5 hr before PTHrp(1-34)): 11.74 ± 0.07 mg/dL; Ca conc. ± standard error ([2]; 1 hr before PTHrp(1-34)): 11.28 ± 0.07 mg/dL; Ca conc. ± standard error ([2]; 2 hr before PTHrp(1-34)): 11.56 ± 0.09 mg/dL; Ca conc. ± standard error ([2]; 4 hr before PTHrp(1-34)): 11.91 ± 0.09 mg/dL |
| CCCCC(C=O)NC(=O)C(CC(C)C)NC(=O)CCCc1ccccc1 (centres unmarked) [Compound 2] | significantly reduced |  |  |  |
| CCCCC(C=O)NC(=O)C(CC(C)C)NC(=O)OC(C)(C)C (centres unmarked) [Compound 6] | significantly reduced |  |  |  |
| CCCCC(C=O)NC(=O)C(CC(C)C)NC(=O)OCc1ccc(Cl)cc1 (centres unmarked) [Compound 8] | significantly reduced |  |  |  |
| CCCCC(C=O)NC(=O)C(CC(C)C)NC(=O)OCc1ccc(OC)cc1 (centres unmarked) [Compound 9] | significantly reduced |  |  |  |
| CCCCC(C=O)NC(=O)C(CC(C)C)NC(=O)OCC(Cl)(Cl)Cl (centres unmarked) [Compound 11] | significantly reduced |  |  |  |
| CCCCC(C=O)NC(=O)C(CC(C)C)NP(=S)(c1ccccc1)c1ccccc1 (centres unmarked) [Compound 15] | significantly reduced |  |  |  |
| CSCC[C@@H](C=O)NC(=O)[C@H](CC(C)C)NC(=O)[C@H](CC(C)C)NC(C)=O [Compound 21, N-Acetyl-leucyl-leucyl-methioninal] (Ac-Leu-Leu-Met-aldehyde) |  | 9.78 ± 0.08 | 9.61 ± 0.13 |  |
| CCCC[C@@H](C=O)NC(=O)[C@H](CC(C)C)NC(=O)[C@H](CC(C)C)NC(C)=O [Compound 22, N-Acetyl-leucyl-leucyl-norleucinal] (Ac-Leu-Leu-[Nle]-aldehyde) |  | 9.49 ± 0.20 | 9.52 ± 0.11 |  |
| CCCC[C@@H](C=O)NC(=O)[C@H](CC(C)C)NC(=O)[C@H](CC(C)C)NC(=O)OCc1ccccc1 [Compound 23, N-Benzyloxycarbonyl-leucyl-leucyl-norleucinal] (Cbz-Leu-Leu-[Nle]-aldehyde) |  | 9.53 ± 0.08 | 9.28 ± 0.66 |  |
| CC(C)CC(NC(=O)C1OC1C(=O)O)C(=O)NCCCCNC(=N)N [Compound E-64, L-trans-epoxysuccinyl-L-leucineamide-(e-guanide)-butane, reference compound] |  | 9.69 ± 0.21 | 9.61 ± 0.12 |  |
